Tests used:
NdmA-His6 = target: T1, NdmA-His6 (Pseudomonas putida, UniProt H9N289); assay: Kinetic parameters of NdmA-His6 with His6-NdmD; assay type: biochemical, Pseudomonas putida CBB5
T1 sequence (H9N289 1-351): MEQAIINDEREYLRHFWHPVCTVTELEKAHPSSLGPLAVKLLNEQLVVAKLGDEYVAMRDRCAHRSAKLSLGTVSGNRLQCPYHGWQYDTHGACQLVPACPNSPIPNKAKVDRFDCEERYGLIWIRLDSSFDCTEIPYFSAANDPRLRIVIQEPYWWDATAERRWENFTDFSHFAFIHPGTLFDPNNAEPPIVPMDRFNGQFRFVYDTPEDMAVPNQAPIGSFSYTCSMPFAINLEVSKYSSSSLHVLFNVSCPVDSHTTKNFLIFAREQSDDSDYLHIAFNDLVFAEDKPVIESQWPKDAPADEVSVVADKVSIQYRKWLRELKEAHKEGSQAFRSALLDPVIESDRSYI
Procedure: (§1) Methylxanthine N-demethylase activity assay contained, in 1-ml total volume, 0.5 mM methylxanthine, 1 mM NADH, 50 μM Fe(NH4)2(SO4)2, and an appropriate amount of NdmA-His6 or NdmB-His6 (7.4 μg-2.5 mg protein depending on substrate specificity) in 50 mM KPi buffer (pH 7.5). Approximately 4 U of partially purified reductase, prepared as described previously (Summers et al., 2011) or 59 U of purified His6-NdmD was added to reaction mixture. Catalase from bovine liver (4,000 U) was also added to reactions containing His6-NdmD. The reaction mixture was incubated at 30° C. with 300 rpm shaking on an incubating microplate shaker (VWR, Radnor, Pa.). Periodically, a small aliquot was sampled from the reaction mixture and mixed with equal volume of acetonitrile for quantifying concentrations of methylxanthines and N-demethylated products by HPLC. One unit of N-demethylase activity was defined as the consumption of one […] methylxanthine per minute.
(§2) Apparent kinetic parameters of NdmA-His6 and NdmB-His6 were determined by measuring the initial rate of disappearance (vo) of methylxanthines in 50 mM KPi buffer (pH 7.5) at 30° C. The initial substrate concentrations ([S]) used in these experiments were from 25 to 500 μM. Substrates were incubated with His6-NdmD plus either NdmA-His6 or NdmB-His6 under standard conditions for 15 minutes. At 1, 5, 10, and 15 minutes, samples were removed from the reaction mixtures to quantitate substrate concentrations by HPLC. Plots of substrate concentrations against time were used to determine the initial rates of disappearance of substrates which were linear over 15 minutes. The apparent kinetic parameters were determined from Michaelis-Menten plots of vo against [S] fitted with the equation

NdmB-His6 = NdmB-His6 (Pseudomonas putida, UniProt H9N290); assay: Kinetic parameters of NdmB-His6 with His6-NdmD; assay type: biochemical, Pseudomonas putida CBB5
Procedure: as §1, §2

NdmC = assay: N-demethylation by NdmC fraction co-purified with reductase; assay type: biochemical, Pseudomonas putida CBB5
Description: This activity was neither associated with NdmA nor with NdmB. […] Cloning of NdmC has proven difficult; nevertheless based on the fact that purified His6-NdmD had no activity on 7-methylxanthine, we annotate orf 8 as aanother RO with highly specific N-7 demthylase activity.

His6-NdmD = His6-NdmD (Pseudomonas putida, UniProt H9N291); assay: N-demethylation by purified His6-NdmD alone; assay type: biochemical, Pseudomonas putida CBB5
Procedure: as §1

[1] = system: Ndm (methylxanthine N-demethylase) with Ccr reductase
Ccr = Ccr (Pseudomonas putida, UniProt H9N291); assay: NAD(P)H:cytochrome c oxidoreductase (Ccr) activity; assay type: biochemical, Pseudomonas putida CBB5
Procedure: NADH:cytochrome c oxidoreductase (cytochrome c reductase, Ccr) activity was determined as described by Ueda et al. (1972). A typical 1-mL reaction contained 300 μM NADH, 87 μM bovine cytochrome c (type III; Sigma), and 1-20 μg CBB5 protein (depending on purity) in 50 mM KPi buffer. The activity was determined by monitoring the increase in absorbance at 550 nm due to reduction of […] cytochrome c at 30° C. An extinction coefficient of 21,000 M^−1 cm^−1 for reduced minus oxidized cytochrome c was used for quantitating the activity. One unit of activity was defined as one μmol of cytochrome c reduced per minute.

[2] = target: T2, Ndm, two-subunit N-demethylase component purified from Pseudomonas putida CBB5 (UniProt H9N289)
T2 sequence 1: T1 sequence (H9N289 1-351)
T2 sequence 2: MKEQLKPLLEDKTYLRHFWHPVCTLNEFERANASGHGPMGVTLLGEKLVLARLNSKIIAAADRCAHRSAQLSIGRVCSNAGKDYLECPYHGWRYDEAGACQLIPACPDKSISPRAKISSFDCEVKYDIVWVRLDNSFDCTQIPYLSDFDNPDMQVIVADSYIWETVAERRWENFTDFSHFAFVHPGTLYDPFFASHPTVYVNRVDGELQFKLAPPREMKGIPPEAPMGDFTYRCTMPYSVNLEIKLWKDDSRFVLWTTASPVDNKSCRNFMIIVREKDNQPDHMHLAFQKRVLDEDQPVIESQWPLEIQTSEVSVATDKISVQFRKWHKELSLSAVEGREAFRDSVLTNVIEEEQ

[3] = substrate: Cn1c(=O)c2[nH]cnc2n(C)c1=O; assay: Kinetic parameters of NdmA-His6 with His6-NdmD; assay type: biochemical, Pseudomonas putida CBB5; conditions: other: NdmA-His6 plus His6-NdmD, pH 7.5, 30° C.
Procedure: as §1
Apparent kinetic parameters of NdmA-His6 and NdmB-His6 were determined by measuring the initial rate of disappearance (vo) of methylxanthines in 50 mM KPi buffer (pH 7.5) at 30° C. […] At 1, 5, 10, and 15 minutes, samples were removed from the reaction mixtures to quantitate substrate concentrations by HPLC. […] The apparent kinetic parameters were determined from Michaelis-Menten plots of vo against [S] fitted with the equation

[4] = target: T3, NdmB, 35 kDa subunit of N-demethylase Ndm purified from Pseudomonas putida CBB5 (Pseudomonas putida CBB5, UniProt H9N290 1-355); assay: gel filtration of purified native Ndm (single symmetric peak, about 240 kDa), fractions checked by SDS-PAGE
T3 construct: Native protein purified from CBB5; Rieske [2Fe-2S] non-heme iron oxygenase; also called 35 kDa-protein
T3 sequence (looked up): T2 sequence 2

NdmA-His6, H9N289 = target: T4, NdmA-His6, H9N289
T4 chain: T1 sequence (H9N289 1-351)

NdmB-His6, H9N290 = target: T5, NdmB-His6, H9N290
T5 chain: T2 sequence 2

Molecule: Cn1cnc2[nH]c(=O)[nH]c(=O)c21 [7-Methylxanthine, 7-methylxanthine]
- N-demethylation activity of NdmA (NdmA-His6): inactive
- Km (NdmA-His6; NdmA-His6 plus His6-NdmD, pH 7.5, 30° C.): ∞
- N-demethylation activity of NdmB (NdmB-His6): no activity
- Km (NdmB-His6; NdmB-His6 plus His6-NdmD, pH 7.5, 30° C.): ∞
- N-demethylation by NdmC/reductase fraction (NdmC): specifically N-demethylated
- activity of purified His6-NdmD (His6-NdmD): no activity
- product formed from paraxanthine ([1]; 90 minutes, 7.4 mU (7.4 units) of Ndm): 126.9 ± 6.4 µM
- N-demethylation product present ([1]; from paraxanthine, after 13 minutes): Approximately 39.9 μM
- Km ([1]; read-out: apparent KM, saturating Ccr, 50 μM Fe2+, 30° C., 50 mM KPi pH 7.5): 63.8 ± 7.5 µM
- apparent kcat ([1]; saturating Ccr, 50 μM Fe2+, 30° C., 50 mM KPi pH 7.5): 94.8 ± 3.0 min⁻¹

Molecule: NC(=O)C1=CN([C@@H]2O[C@H](COP(=O)(O)OP(=O)(O)OC[C@H]3O[C@@H](n4cnc5c(N)ncnc54)[C@H](OP(=O)(O)O)[C@@H]3O)[C@@H](O)[C@H]2O)C=CC1 [NADPH]
- Ccr activity relative to that with NADH (Ccr): 22%

Molecule: Ccr, partially purified cytochrome c reductase component of Pseudomonas putida CBB5
- N-demethylase activity [2]: No N-demethylase activity was observed when purified Ndm was assayed without the Ccr fraction

B1: NdmA, 40 kDa subunit of N-demethylase Ndm purified from Pseudomonas putida CBB5 (enzyme, UniProt H9N289 1-351, looked up)
chain: T1 sequence (H9N289 1-351)
notes: Native protein purified from CBB5; Rieske [2Fe-2S] non-heme iron oxygenase; also called 40 kDa-protein
- Km [3]: 91. μM
- binding result [4]: binds

B2: His6-NdmD (protein)
chain: HHHHHHSSGLVPRGSHMNKLDVNQWFPIATTEDLPKRHVFHATLLGQEMAIWRDDSGSVNAWENRCPHRGLRLTLGANTGNELRCQYHGWTYESGTGGCTFVPAHRDAPPPNAARVNTFPVREKHGFIWTTLGQPPGEPISILDDAQLVNAVKTNLHSVVIDADIDGVVSVLRQNLSAFIDVFGAASAEDLHLKSMLQDRGILVTRSGSIAIHFYMQRSTISKCVVHAQVLTPGRPGYELQKNYSYAMNVIRRAAEAVATDLISITDISDQTIEKLEVVRENMTKAPPTHYICEVVTRTQETGDINSYWLKPIGYPLPAFSPGMHISITTPEGSIRQYSLVNGPDERESFIIGVKKEIQSRGGSRSMHEDVKVGTQLKVTLPRNGFPLVQTRKHPILVAGGIGITPILCMAQALDQQGSSYEIHYFARAFEHVPFQDRLTALGDRLNVHLGLGPDETRAKLPDIMEIHNAQDVDVYTCGPQPMIETVSAVALAHGIAEESIRFEFFSKKNDVPVSDEEYEVELKKTGQIFTVSPGSTLLQACLDNDVRIEASCEQGVCGTCITPVVSGDLEHHDTYLSKKERESGKWIMPCVSRCKSKKIVLDL
- N-demethylation of caffeine to theobromine (HPLC) (NdmA-His6, H9N289): when NdmA-His6 was incubated with His6-NdmD, caffeine, NADH, and exogenous Fe^2+, caffeine was stoichiometrically demethylated at N1 to theobromine
- N-demethylation of theobromine to 7-methylxanthine (HPLC) (NdmB-His6, H9N290): NdmB-His6 with His6-NdmD, theobromine, NADH, and Fe^2+ resulted in stoichiometric demethylation at N3 of theobromine to 7-methylxanthine
